Data published in patent US12258368B2, “Disulfide-linked reversible terminators” (CENTRILLION TECHNOLOGY HOLDINGS CORPORATION, priority 2018, dated 2025).

System: DNA polymerase ("CENT1")
Assay: Enzymatic incorporation (primer extension) into a growing DNA chain, with runaway reaction
Format: biochemical
Conditions: for blockage of further extension after incorporation of the terminator: "runaway" reaction in the presence of all four unmodified dNTPs and a polymerase, lane 4; for further extension by the next base added after the cleavage: lane 6; for enzymatic incorporation: in the presence of DNA polymerase ("CENT1"), lane 3

continued extension in a "runaway" reaction after cleavage (all four unmodified dNTPs and a DNA polymerase, FIG. 4 lanes 7 and 8) | SMILES | blockage of further extension after incorporation of the terminator | further extension by the next base added after the cleavage | enzymatic incorporation
 | CC(=O)SCO[C@H]1C[C@H](n2cc(C#CCNC(=O)OC(C)(C)C)c(=O)[nH]c2=O)O[C@@H]1COP(=O)(O)OP(=O)(O)OP(=O)(O)O [compound 60, S-((((2R,3S,5R)-5-(5-(3-((tert-butoxycarbonyl)amino)prop-1-yn-1-yl)-2,4-dioxo-3,4-dihydropyrimidin-1 (2H)-yl)-2-(((hydroxy((hydroxy(phosphonooxy)phosphoryl)oxy)phosphoryl)oxy)methyl)tetrahydrofuran-3-yl)oxy)methyl) ethanethioate] | blockage of further extension after incorporation of the terminator | further extension by the next base added | can be used in enzymatic incorporation
continued extension | CSSCO[C@@H]1C[C@H](n2cc(C#CCNC(=O)OCCSSCCNC(=O)c3ccc(C4=c5cc6c(cc5Oc5cc7c(cc54)C(CS(=O)(=O)O)=CC(C)(C)N7)=NC(C)(C)C=C6CS(=O)(=O)O)cc3C(=O)O)c(=O)[nH]c2=O)O[C@@H]1COP(=O)(O)OP(=O)(O)OP(=O)(O)O [compound 75, (6-(3-carboxy-4-((2-((2-(((3-(1-((2R,4R,5R)-5-(((hydroxy((hydroxy(phosphonooxy)phosphoryl)oxy)phosphoryl)oxy)methyl)-4-((methyldisulfaneyl)methoxy)tetrahydrofuran-2-yl)-2,4-dioxo-1,2,3,4-tetrahydropyrimidin-5-yl)prop-2-yn-1-yl)carbamoyl)oxy)ethyl)disulfaneyl)ethyl)carbamoyl)phenyl)-2,2,10,10-tetramethyl-8-(sulfomethyl)-10,11-dihydro-2H-pyrano[3,2-g:5,6-g′]diquinolin-1-ium-4-yl)methanesulfonate] | excellent blockage | further extension with on base added | excellent enzymatic incorporation
